In this assay the test system is NMRI-CERJ mice. The assay is described as follows: Antagonism of the hypermotility induced by amphetamine. The settings on record: d-amphetamine 4 mg kg^-1 IP, 30 minutes. Format: in vivo. The procedure:
4 mg kg^-1 of d-amphetamine are injected intraperitoneally (IP) into groups of 10 NMRI-CERJ mice immediately after IP injection of the compound to be tested, and the mice are placed in an actimeter for 30 minutes.
The number of interruptions of the photoelectric cells is counted, as is the stereotyped behavior.
The activity of the compounds tested is expressed as a percentage of the antagonism of the hyperactivity induced by amphetamine.

Here are results for one molecule from patent US5534511A, “Aminoalkyl benzoxazolinones and benzothiazolinones” (Adir et Compagnie, priority 1994, dated 1996).

With `Cn1c(=O)sc2cc(CCN3CCC(Cc4ccccc4)CC3)ccc21` [Example 1, 3-METHYL-6-[2-(4-BENZYLPIPERID-1-YL)ETHYL]BENZOTHIAZOLINONE], the “percentage of the antagonism of the hyperactivity induced by amphetamine” value (from here on “percentage”) (2 mg.kg^-1 IP) came to 23%, the “percentage” value (4 mg.kg^-1 IP) amounted to 50% and the “percentage” value (8 mg.kg^-1 IP) worked out at 63%.
